Counter-ions that a name gives are not always drawn. Where no end group is shown, it is not given here.
Columns and labels:
[1] = test system: acute attacks of migraine; details: clinical trials; cited from earlier work
[2] = target: T1, recombinant human CL receptor/RAMP1 (Homo sapiens, UniProt O60894+Q16602); assay: Recombinant Receptor Binding Assay (125I-hCGRP); details: exemplary compounds of the invention
T1 construct: expressed in transfected cells; membranes
Protocol: Recombinant Receptor: Human CL receptor (Genbank accession number L76380) was subcloned into the expression vector pIREShyg2 (BD Biosciences Clontech) as a 5′NheI and 3′ PmeI fragment. Human RAMP 1 (Genbank accession number AJ001014) was subcloned into the expression vector pIRESpuro2 (BD Biosciences Clontech) as a 5′NheI and 3′NotI fragment. HEK 293 cells (human embryonic kidney cells; ATCC #CRL-1573) were cultured in DMEM with 4.5 g/L glucose, 1 mM sodium pyruvate and 2 mM glutamine supplemented with 10% fetal bovine serum (FBS), 100 units/mL penicillin and 100 μg/mL streptomycin, and maintained at 37° C. and 95% humidity. Cells were subcultured by treatment with 0.25% trypsin with 0.1% EDTA in HBSS. Stable cell line generation was accomplished by co-transfecting 10 μg of DNA with 30 μg Lipofectamine 2000 (Invitrogen) in 75 cm^2 flasks. CL receptor and RAMP1 expression constructs were co-transfected in equal amounts. Twenty-four hours after transfection the cells were diluted and selective medium (growth medium+300 μg/mL hygromycin and 1 μg/mL puromycin) was added the following day. A clonal cell line was generated by single cell deposition utilizing a FACS Vantage SE (Becton Dickinson). Growth medium was adjusted to 150 μg/mL hygromycin and 0.5 μg/mL puromycin for cell propagation.
Recombinant Receptor Binding Assay: Cells expressing recombinant human CL receptor/RAMP1 were washed with PBS and harvested in harvest buffer containing 50 mM HEPES, 1 mM EDTA and Complete™ protease inhibitors (Roche). The cell suspension was disrupted with a laboratory homogenizer and centrifuged at 48,000 g to isolate membranes. The pellets were resuspended in harvest buffer plus 250 mM sucrose and stored at −70° C. For binding assays, 20 μg of membranes were incubated in 1 mL binding buffer (10 mM HEPES, pH 7.4, 5 mM MgCl2, and 0.2% BSA) for 3 h at room temperature containing […] ^125I-hCGRP (GE Healthcare) and antagonist. The assay was terminated by filtration through 96-well GFB glass fiber filter plates (PerkinElmer) that had been blocked with 0.05% polyethyleneimine. The filters were washed 3 times with ice-cold assay buffer (10 mM HEPES, pH 7.4, and 5 mM MgCl2). Scintillation fluid was added and the plates were counted on a Topcount (Packard). Non-specific binding was determined and the data analysis was carried out with the apparent dissociation constant (Ki) determined by using a non-linear least squares fitting the bound CPM data to the equation below:
[formula] Where Y is observed CPM bound, Ymax is total bound counts, Ymin is non specific bound counts, (Ymax−Ymin) is specific bound counts, % Imax is the maximum percent inhibition, % I min is the minimum percent inhibition, radiolabel is the probe, and the Kd is the apparent dissociation constant for the radioligand for the receptor as determined by hot saturation experiments.

[3] = test system: facial blood flow; details: rat, trigeminal ganglion stimulation; cited from earlier work
[4] = test system: middle meningeal artery; details: rats, electrical stimulation of the dura mater, prior administration; cited from earlier work
[5] = test system: headache induced by CGRP infusion; details: control group; cited from earlier work
[6] = test system: facial blood flow; details: marmoset, electrical stimulation of the trigeminal ganglion; cited from earlier work

T1 sequence (Q16602 23-461): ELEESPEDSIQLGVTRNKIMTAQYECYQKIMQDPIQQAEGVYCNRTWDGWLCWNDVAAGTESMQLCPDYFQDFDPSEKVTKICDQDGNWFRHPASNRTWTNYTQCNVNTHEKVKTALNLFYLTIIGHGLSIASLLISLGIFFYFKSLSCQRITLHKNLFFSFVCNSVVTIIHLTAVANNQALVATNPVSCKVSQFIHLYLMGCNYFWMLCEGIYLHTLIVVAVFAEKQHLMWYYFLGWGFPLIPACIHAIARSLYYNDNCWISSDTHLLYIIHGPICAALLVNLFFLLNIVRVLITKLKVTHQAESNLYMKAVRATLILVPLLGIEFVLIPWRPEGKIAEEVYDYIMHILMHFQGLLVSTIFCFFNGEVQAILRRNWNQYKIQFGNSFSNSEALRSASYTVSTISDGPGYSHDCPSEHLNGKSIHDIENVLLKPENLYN
T1 sequence (O60894 27-148): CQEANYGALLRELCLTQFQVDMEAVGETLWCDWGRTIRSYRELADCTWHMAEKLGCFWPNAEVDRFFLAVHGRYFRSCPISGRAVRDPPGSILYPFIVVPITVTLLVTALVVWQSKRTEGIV

Compound: O=C(N[C@@H]1CC[C@@H](c2cccc(F)c2F)CN(CC(F)(F)F)C1=O)N1CCC(n2c(=O)[nH]c3ncccc32)CC1 [telcagepant]
- effectiveness in treating acute attacks of migraine [1]: antimigraine effectiveness

Compound: O=C(N[C@H]1C[C@@H](c2c(Cl)cccc2Cl)CN(CC(F)(F)F)C1=O)c1ccc2c(c1)C[C@@]1(C2)C(=O)Nc2ncccc21 [Example 9]
- Ki [2]: 0.24 nM

Compound: C[C@@H]1[C@H](c2cc(F)cc(F)c2F)C[C@H](NC(=O)c2ccc3c(c2)C[C@@]2(C3)C(=O)Nc3ncccc32)C(=O)N1CC(F)(F)F [Example 3, (2R)-N-1-[(3S,5S,6R)-6-Methyl-2-oxo-1-(2,2,2-trifluoroethyl)-5-(2,3,5-trifluorophenyl)piperidin-3-yl]-2′-oxo-1,1′,2′,3-tetrahydrospiro[indene-2,3′-pyrrolo[2,3-b]pyridine]-5-carboxamide hydrochloride]
- Ki [2]: 0.039 nM

Compound: C[C@@H]1[C@H](c2ccccc2)C[C@H](NC(=O)c2ccc3c(c2)C[C@@]2(C3)C(=O)Nc3ncccc32)C(=O)N1CC(F)(F)F [Example 1, (2R)-N-[(3S,5S,6R)-6-Methyl-2-oxo-5-phenyl-1-(2,2,2-trifluoroethyl)piperidin-3-yl]-2′-oxo-1,1′,2′,3-tetrahydrospiro[indene-2,3′-pyrrolo[2,3-b]pyridine]-5-carboxamide]
- Ki [2]: 0.079 nM

Compound: C[C@@H]1[C@H](c2c(F)ccc(F)c2F)C[C@H](NC(=O)c2ccc3c(c2)C[C@@]2(C3)C(=O)Nc3ncccc32)C(=O)N1CC(F)(F)F [Example 12]
- Ki [2]: 0.025 nM

Compound: CGRP(8-37) (VTHRLAGLLSRSGGVVKNNFVPTNVGSKAF; ends and bridges not checked; UniProt P06881 90-119, looked up, fragment) [a peptide CGRP receptor antagonist]
- effect on increased facial blood flow [3]: inhibited
- effect on increase in diameter of the middle meningeal artery [4]: blocked

Compound: NCCCC[C@H](NC(=O)[C@@H](Cc1cc(Br)c(O)c(Br)c1)NC(=O)N1CCC(N2Cc3ccccc3NC2=O)CC1)C(=O)N1CCN(c2ccncc2)CC1 [BIBN4096BS]
- prevention of headache induced by CGRP infusion [5]: able to prevent headache induced by CGRP infusion
- effect on increase in facial blood flow [6]: blocked
- effectiveness in treating acute attacks of migraine [1]: effective in treating acute attacks of migraine

Compound: C[C@@H]1[C@H](c2cccc(Cl)c2)C[C@H](NC(=O)c2ccc3c(c2)C[C@@]2(C3)C(=O)Nc3ncccc32)C(=O)N1CC(F)(F)F [Example 2, (2R)-N-[(3S,5S,6R)-5-(3-Chlorophenyl)-6-methyl-2-oxo-1-(2,2,2-trifluoroethyl)piperidin-3 yl]-2′-oxo-1,1′,2′,3-tetrahydrospiro[indene-2,3′-pyrrolo[2,3-b]pyridine]-5-carboxamide]
- Ki [2]: 0.17 nM

Compound: C[C@@H]1[C@H](c2c(F)c(F)cc(F)c2F)C[C@H](NC(=O)c2ccc3c(c2)C[C@@]2(C3)C(=O)Nc3ncncc32)C(=O)N1CC(F)(F)F [Example 20]
- Ki [2]: 0.021 nM

Compound: C[C@@H]1[C@H](c2ccccc2)C[C@H](NC(=O)c2ccc3c(c2)C[C@@]2(C3)C(=O)Nc3ncc(C#N)cc32)C(=O)N1CC(F)(F)F [Example 16]
- Ki [2]: 0.13 nM

Compound: O=C(N[C@H]1C[C@@H](c2cc(F)cc(F)c2)CN(CC(F)(F)F)C1=O)c1ccc2c(c1)C[C@@]1(C2)C(=O)Nc2ncccc21 [Example 4]
- Ki [2]: 0.18 nM

Compound: O=C(N[C@H]1C[C@@H](c2cccc(F)c2F)CN(CC(F)(F)F)C1=O)c1ccc2c(c1)C[C@@]1(C2)C(=O)Nc2ncccc21 [Example 5]
- Ki [2]: 0.061 nM

Compound: CC(C)CN1C[C@H](c2cccc(F)c2F)C[C@H](NC(=O)c2ccc3c(c2)C[C@@]2(C3)C(=O)Nc3ncccc32)C1=O [Example 14]
- Ki [2]: 0.032 nM

Source: patent US8883807B2, “Piperidinone carboxamide indane CGRP receptor antagonists” (Merck Sharp & Dohme Corp., priority 2010, dated 2014)
